Data: US6391921B1 (priority 2000, dated 2002)

Tests used:
[1] = molecular target: T1, Src family tyrosine kinase HCK (Homo sapiens, UniProt P08631); assay: HCK kinase assay (immunoprecipitated from HCK-transfected COS-7 cells); type: biochemical; settings: FIG. 1C; 1 hour exposure
T1 construct: expressed in transfected cells; host or cells: COS-7 cells transfected with pSV7c-HCK; immunoprecipitated with anti-HCK antibody
Method: For HCK kinase assays, HCK-transfected COS-7 cells were used. The cloning and expression of HCK in COS-7 cells has been described previously (ref 18). The pSV7c-HCK plasmid was transfected into 2×10^6 COS-7 cells using Lipofectamine (GIBCO/BRL), and the cells were harvested 48 hours later. The cells were lysed in NP-40 buffer and HCK was immunoprecipitated from the whole cell lysates with an anti-HCK antibody. Kinase assays were performed following a 1 hour exposure of the purified (BTK, SYK) or immunoprecipitated (HCK) tyrosine kinases to the test compound, as described in detail elsewhere (refs 18-22). Following electrophoresis, kinase gels were dried onto Whatman 3M filter paper and subjected to phosphoimaging on a Molecular Imager (Bio-Rad, Hercules, Calif.) as well as autoradiography on film. […] For each drug concentration, a BTK or SYK kinase activity index was determined by comparing the ratios of the kinase activity in phosphorimager units (PIU) and density of the protein bands in densitometric scanning units (DSU) to those of the baseline sample and using the formula: Activity Index=[PIU of kinase band/DSU of BTK/SYK protein band]test sample: [PIU of kinase band/DSU of BTK/SYK protein band]baseline control sample.

RBL-2H3 cells = assay: Mast cell viability by trypan blue dye exclusion; type: cell-based, rat; settings: 300 μM, 2 hour treatment at 37° C.
From the text: The viability of compound D-58-treated mast cells ranged from 91 to 92%. […] Stimulation of RBL-2H3 mast cells using IgE/antigen as a stimulus induced the release of significant amounts of preformed granule-associated β-hexosaminidase (47.2±7.9% of total cellular content) as well as newly synthesized LTC4 (5.8±1.8 pg/10^6 cells).

HaCaT cells = assay: PGE2 release from UVB-irradiated HaCaT cells; type: cell-based, human; settings: 20 mJ/cm^2 UVB, 24 hours post irradiation; FIG. 5
From the text: A bank of 8-FSX24T12/HO/UVB lamps (National Biological Corporation, Twinsburg, Ohio) that emit light predominantly in the UVB range (280-320 nm) was used to irradiate the cell cultures. The performance of the UVB lamps was always confirmed before irradiation using a UVB meter (model-500C obtained from National Biological Corporation, Twinsburg, Ohio). The dose of UVB light used to irradiate cell cultures was 20 mJ/cm^2. Confluent HaCaT cells cultured in 24-well culture dishes were washed three times with serum-free DMEM containing 1% BSA and incubated with indicated concentrations of compound D-58 for 1 hour at 37° C. […] Compound D-58 was readministered after irradiation and the cells were incubated for another 24 hours at 37° C. The cell supernatants were collected and their PGE2 concentration was measured by ELISA. The protein contents of the cell pellets were determined using the Pierce BCA protein assay method.
One of the major arachidonic acid metabolites in UVB-irradiated epidermal cells is prostaglandin E2 (PGE2), which induces edema and erythema in skin (refs 34 and 35). PGE2 release can be detected as early as 6 hours and peaks between 24-48 hours following UVB exposure. […]
To summarize, confluent monolayers of the human epidermal cell line HaCaT were either irradiated with UVB (20 mJ/cm^2) or sham irradiated. […] The drug was readministered after UVB exposure. […]

Balb/c mice = assay: Carrageenan air pouch model of acute inflammation, PGE2 release in vivo; settings: 50 mg/kg i.p. twice before carrageenan challenge; 4 hours after challenge; FIG. 6
Method: The effects of compound D-58 on PGE2 release in vivo were examined using a well characterized air pouch mouse model of acute inflammation (ref 36). An acute inflammatory response was induced in the air pouches of mice by the injection of carrageenan, a sulfated polysaccharide obtained from the alga Chondrus crispus (ref 36).
Balb/c (6-8 weeks old male) mice were utilized for these experiments. To create an air pouch, mice were injected with 3 ml sterile air subcutaneously using a 30 gauge needle on days 0 and 3 as described previously (refs 30 and 31). Six days after the initial injection of air, mice were injected with 2 ml of 1% carrageenan into the subcutaneous air pouch.
In order to study the effect of compound D-58, a group of mice was injected with the drug i.p. 60 minutes and 30 minutes before the carrageenan challenge. Control mice were treated with vehicle alone. After 4 hours of challenge with carrageenan, mice were sacrificed and the contents of the air pouches were harvested by lavage with 2 ml cold saline. The recovered fluids were centrifuged at 250×g for 15 minutes at 4° C. Supernatants were saved at −80° C. for the estimation the of prostaglandin E2 contents. […]
The data points represent the mean±SEM values (n=4-5 mice). *p<0.05 compared to vehicle-treated controls was determined by Student's t test.

T1 sequence (P08631 whole entry): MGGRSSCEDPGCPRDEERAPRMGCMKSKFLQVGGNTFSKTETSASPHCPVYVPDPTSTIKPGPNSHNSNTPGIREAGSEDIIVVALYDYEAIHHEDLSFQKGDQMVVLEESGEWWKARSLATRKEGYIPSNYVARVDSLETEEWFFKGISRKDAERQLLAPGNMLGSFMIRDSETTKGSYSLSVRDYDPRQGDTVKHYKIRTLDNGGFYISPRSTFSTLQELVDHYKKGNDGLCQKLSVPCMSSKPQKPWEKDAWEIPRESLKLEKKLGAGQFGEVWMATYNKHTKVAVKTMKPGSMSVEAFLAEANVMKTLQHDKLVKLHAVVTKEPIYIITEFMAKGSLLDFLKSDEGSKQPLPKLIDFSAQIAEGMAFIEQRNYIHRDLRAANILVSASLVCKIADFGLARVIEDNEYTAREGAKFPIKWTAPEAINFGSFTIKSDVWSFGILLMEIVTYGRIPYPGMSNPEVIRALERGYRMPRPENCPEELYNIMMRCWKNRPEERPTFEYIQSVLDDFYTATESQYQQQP

In the case of `COc1ccc(CC(=O)c2c(O)cc(O)cc2O)cc1` [Compound D-58], the IC50 [1] is reported as over 200 µM, the “effect on viability of RBL-2H3 cells” value (RBL-2H3 cells) is reported as “did not affect the viability” and the “PGE2 release from UVB irradiated cells” value (HaCaT cells) is reported as “inhibited the PGE2 release”. For the same molecule, the “decrease of PGE2 release into the air pouch” value (Balb/c mice) was “approximately 50%”.
